Patent US20120115778A1, “Methods of Suppressing Appetite by the Administration of Antagonists of the Serotonin HTR1a or HTR2b Receptors or Inhibitors of TPH2” (The Trustees of Columbia University in the City of New York, priority 2009, published 2012)

Legend:
[1] = system: CREB phosphorylation in arcuate neurons; experiment: CREB phosphorylation in hypothalamic explant cultures (immunofluorescence of p-CREB); assay type: cell-based, mice; conditions: hypothalamic explants treated with serotonin
Protocol: FIG. 18. (A) Western blot analysis of CREB phosphorylation and CREB in hypothalamic explants treated with PBS, serotonin (50 µM), Htr1a antagonist (LY426955) (50 µM) or serotonin (50 µM)+Htr1a antagonist (LY426955) (50 µM). (B) Analysis of CREB phosphorylation by immunofluorescence using P-CREB (S133) antibody. Immunofluorescence was performed on coronal sections of wild type (WT) hypothalamic explants previously treated with, PBS, 50 µM serotonin, 50 µM Htr1a antagonist (LY426955) or 50 µM serotonin+50 µM Htr1a antagonist (LY426955) for 30 min. The first row represents large bright field images of hypothalamic sections and the immunofluorescence analysis of the restricted hypothalamic region containing the Arcuate (Arc) neurons. Ventromedial hypothalamus (VMH) and Arcuate (Arc) are outlined with dashed. (C-D) Analysis of the appetite of CrebPomc−/− mice. (C) Measurement of the food intake (g) within 12 hours and 24 hours and (D) body weight analysis in WT, CrebPomc+/− and CrebPomc−/− mice. *(p<0.05, SEM). (E) Real-time PCR analysis of Mc4r, Pomc-1, Cart, Mch, Hypocretine and Npy expression in hypothalamus of WT and CrebPomc−/− mice. *(p<0.05, SEM).
Htr1a is a […] coupled receptor that signals through the cAMP-PKA-dependent pathway. […]

[2] = system: c-Fos expression in neurons of the paraventricular and arcuate nuclei; experiment: Melanocortin sensitivity analysis: c-Fos expression after ICV Mc4r agonist; assay type: in vivo; conditions: ICV infusion, both WT and Tph2-/- mice
Protocol: A survey was carried out of the expression of genes in hypothalamic neurons that may mediate leptin regulation of appetite and the expression of which is perturbed in Tph2−/− mice. […] Two observations support the notion that the appetite phenotype of the Tph2−/− mice is caused, at least in part, by an increase in melanocortin signaling. […] Moreover, Mc4r expression was increased ˜2 fold in Htr1a−/− and ˜1.6 fold in Htr2bPomc−/− mice, but was unaffected in Htr2c−/− mice (FIG. 6J and data not shown).
To analyze changes in melanocortin sensitivity in Tph2−/− mice, MTII (2 μg) or saline was administered (ICV) into WT and Tph2−/− mice. 3 hours later mice were transcardially perfused with 4% PFA, brains were dissected and postfixed in 4% PFA overnight at 4° C. Following cryoprotection in 20% sucrose, brains were coronally sectioned at 30 μm thickness. For colorimetric cFos immunohistochemistry, sections were incubated for 16 hrs at 4° C. in rabbit anti-cFos antiserum (Ab-5; 1:3000 dilution; Calbiochem), incubated with biotinylated goat anti-rabbit IgG secondary antiserum (1:600; Vector laboratories) for 2 h at room temperature, and then incubated in avidin biotin complex (Vector Labs). Color was developed using Vector ABC kit.

serotonergic neurons = experiment: Whole cell patch clamp recording in brain slices containing dorsal raphe; assay type: cell-based; conditions: WT mice
Protocol: The mediation of peripheral hormone action on the output of the brain relies on altered neuronal circuit activity. Interaction between neuronal circuits hinges on electric properties of neurons, particularly on the generation of action potentials. Thus, to test whether leptin directly alters serotonin output from brainstem neurons, the responses of serotonin-producing cells to leptin were analyzed with whole cell patch clamp recording in brain slices containing dorsal raphe (DR). Slices were taken from WT animals and from mice lacking ObRb selectively in Tph2-expressing neurons (ObRbSERT−/− mice). Serotonergic neurons were identified according to their unique properties (long-duration action potential, activation by norepinephrine and inhibition by serotonin itself) (Liu et al., 2002, J. Neurosci. 22:9453-9464). Since serotonergic neurons are usually quiescent in slices because of the loss of noradrenergic inputs, action potentials in these neurons were restored by application of alpha-1 adrenergic agonist phenylephrine (3 μM) in the bath (Liu et al., 2002, J. Neurosci. 22:9453-9464). […]
Whole-cell current clamp was performed to observe action potentials in DR seritonergic (5-HT) neurons with a Multiclamp 700A amplifier (Axon instrument, CA). […] Electrophysiological data were analyzed with Axograph 4.9 and plotted with Igor Pro software (WaveMetrics, Lake Oswego, Oreg.).

Tph2 expression = experiment: qPCR analysis of Tph2 expression following leptin ICV infusion; assay type: in vivo; conditions: WT mice, different doses and time points
Excerpt: FIG. 5. Leptin inhibits bone mass accrual by inhibiting brain-derived serotonin synthesis. (A) In situ hybridization analysis and co-immunolocalization of ObRb expression in serotonergic neurons. (B-C) qPCR analysis of Tph2 expression (B) and brainstem serotonin content (C) at different ages in WT and ob/ob female mice. (D-E) qPCR analysis of Tph2 expression following intra-cerebroventricular (ICV) infusion of leptin at different doses (D) and at different time points (E) in WT mice. (F) Immunohistochemical analysis of STAT3 phosphorylation in the dorsal and median raphe following leptin ICV. Arrows indicate pSTAT3/β-Gal positive cells. (G-H) qPCR analysis of Tph2 expression (G) and brainstem serotonin content (H) in WT, ob/ob and ob/ob; Tph2+/− mice. (I) Histomorphometric analysis of vertebrae of ob/ob and ob/ob; Tph2+/− mice. (J) Representative traces of action potentials recorded from WT mice before, during and after the application of leptin (100 nM). R.M.P. −43.0 mV. (K-L) Analysis of serotonergic neuron action potential (AP) frequency in brainstem slices from WT (K) and ObRbSERT−/− (L) mice. All panels (except D, E, G, H and K) *P<0.05; **P<0.01 (Student's t test). Error bars, SEM. […]
RNA isolation, cDNA preparation and qPCR analysis was carried out following standard protocols. Genotypes of all the mice were determined by PCR. […]

phosphorylation of Stat3 = experiment: Co-immunolocalization of Stat3 phosphorylation in serotonergic neurons of the brainstem after acute leptin ICV infusion; assay type: in vivo, mice
Excerpt: Multiple lines of evidence indicate that it is by inhibiting BDS synthesis that leptin prevents bone mass accrual. First, ObRb, the signaling form of the leptin receptor, is expressed in β-galactosidase-positive Tph2-expressing neurons (FIG. 5A). […] Leptin inhibits synthesis of BDS, which in turn reduces, by signaling in VMH neurons, the sympathetic tone; as a result leptin prevents bone mass accrual.
Animals were anaesthetized and placed on a stereotaxic instrument (Stoelting) and the depth of anesthesia was determined by the animal's respiratory pattern and by pinching the animal's foot for reflex response. The dorsal part of the animal's head was shaved and prepped with betadine scrub, and 70% alcohol. The skin covering the head was then cut (approximately a 1 cm incision) and the calvaria exposed. A hole was drilled upon bregma using a 28-gauge needle. A 28 gauze needle canula (Brain infusion kit II, Alzet) was then implanted into the hole reaching the third cerebral ventricle according to the following coordinates: midline, −0.3 AP. 3 mm ventral (0 point Bregma). Using a Hamilton syringe, PBS or leptin (2 μg) was injected into the 3rd cerebral ventricle. The dorsal edges of the incision were coated with Bupivicaine 0.25% (<2 mg/kg), joined and closed with 2 sterile clips. […]

NCCc1c[nH]c2ccc(O)cc12 [serotonin]
CREB phosphorylation [1]: increased CREB phosphorylation in arcuate neurons

MTII
c-Fos expression in neurons of the paraventricular and arcuate nuclei [2]: increased c-Fos expression

leptin: adipocyte-derived hormone that regulates appetite and energy expenditure
action potential frequency in serotonergic neurons (serotonergic neurons): significantly decreased action potential frequency | Tph2 expression (Tph2 expression): decreased Tph2 expression in a time- and dose-dependent manner | phosphorylation of Stat3 in serotonergic neurons of the brainstem (phosphorylation of Stat3; ObRbSERT-/- mice): dramatically reduced | phosphorylation of Stat3 in serotonergic neurons of the brainstem (phosphorylation of Stat3; WT mice): increased
